Laboratory results from PubChem BioAssay (NCI).
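Values below derive from 48-hour exposures of cells grown in 96-well plates, with endpoints linearly interpolated between the two concentrations bracketing the appropriate inhibition level. At the GI50, growth is halved. TGI is the concentration that stops growth completely.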

Key:
Assay in all cases: DTP human tumour cell line panel, 48 h
SK-MEL-5 melanoma = test system: SK-MEL-5 melanoma
EKVX NSCLC = test system: EKVX NSCLC
MALME-3M melanoma = test system: MALME-3M melanoma
MCF7 breast = test system: MCF7 breast
786-0 renal = test system: 786-0 renal
SF-268 CNS = test system: SF-268 CNS
IGROV1 ovarian = test system: IGROV1 ovarian
UO-31 renal = test system: UO-31 renal
NCI-H460 lung = test system: NCI-H460 lung
HL-60(TB) leukemia = test system: HL-60(TB) leukemia
MOLT-4 leukemia = test system: MOLT-4 leukemia
SF-539 CNS = test system: SF-539 CNS
OVCAR-4 ovarian = test system: OVCAR-4 ovarian
HCC-2998 colon = test system: HCC-2998 colon
SNB-75 CNS = test system: SNB-75 CNS
A498 renal = test system: A498 renal
SF-295 CNS = test system: SF-295 CNS
HCT-116 colon = test system: HCT-116 colon
SNB-19 CNS = test system: SNB-19 CNS
NCI-H23 lung = test system: NCI-H23 lung
A549 NSCLC = test system: A549 NSCLC
ACHN renal = test system: ACHN renal
K-562 leukemia = test system: K-562 leukemia
MDA-MB-435 = test system: MDA-MB-435
TK-10 renal = test system: TK-10 renal
NCI/ADR-RES ovarian = test system: NCI/ADR-RES ovarian
HT29 colon = test system: HT29 colon
PC-3 prostate = test system: PC-3 prostate
HCT-15 colon = test system: HCT-15 colon
SW-620 colon = test system: SW-620 colon
DU-145 prostate = test system: DU-145 prostate
M14 melanoma = test system: M14 melanoma
SK-OV-3 ovarian = test system: SK-OV-3 ovarian
OVCAR-8 ovarian = test system: OVCAR-8 ovarian
SK-MEL-28 melanoma = test system: SK-MEL-28 melanoma
SR leukemia = test system: SR leukemia
RXF 393 renal = test system: RXF 393 renal
OVCAR-5 ovarian = test system: OVCAR-5 ovarian
CCRF-CEM leukemia = test system: CCRF-CEM leukemia
HOP-62 NSCLC = test system: HOP-62 NSCLC
HS 578T breast = test system: HS 578T breast
NCI-H226 lung = test system: NCI-H226 lung
HOP-92 NSCLC = test system: HOP-92 NSCLC
T-47D breast = test system: T-47D breast
BT-549 breast = test system: BT-549 breast
KM12 colon = test system: KM12 colon
UACC-257 melanoma = test system: UACC-257 melanoma
RPMI-8226 leukemia = test system: RPMI-8226 leukemia
U251 CNS = test system: U251 CNS
CAKI-1 renal = test system: CAKI-1 renal
SN12C renal = test system: SN12C renal
LOX IMVI melanoma = test system: LOX IMVI melanoma
NCI-H522 lung = test system: NCI-H522 lung
SK-MEL-2 melanoma = test system: SK-MEL-2 melanoma
UACC-62 melanoma = test system: UACC-62 melanoma
MDA-MB-231 breast = test system: MDA-MB-231 breast
COLO 205 colon = test system: COLO 205 colon
OVCAR-3 ovarian = test system: OVCAR-3 ovarian

COc1cc2c3c(n(CCCNCCCNCCCn4c5c(c6cc(OC)c(OC)cc6c4=O)C(=O)c4ccccc4-5)c(=O)c2cc1OC)-c1ccccc1C3=O
GI50 (SK-MEL-5 melanoma): 68.2 µM | TGI (SK-MEL-5 melanoma): > 100 µM | GI50 (EKVX NSCLC): > 100 µM | TGI (EKVX NSCLC): > 100 µM | GI50 (MALME-3M melanoma): 25.7 µM | TGI (MALME-3M melanoma): > 91.7 µM | GI50 (MCF7 breast): 1.51 µM | TGI (MCF7 breast): > 53.2 µM | TGI (786-0 renal): > 46.4 µM | GI50 (SF-268 CNS): 6.61 µM | TGI (SF-268 CNS): > 100 µM | GI50 (IGROV1 ovarian): 1.33 µM | TGI (IGROV1 ovarian): > 55.6 µM | GI50 (UO-31 renal): > 100 µM | TGI (UO-31 renal): > 100 µM | GI50 (NCI-H460 lung): 6.23 µM | TGI (NCI-H460 lung): > 100 µM | GI50 (HL-60(TB) leukemia): 1.11 µM | TGI (HL-60(TB) leukemia): 12.6 µM | GI50 (MOLT-4 leukemia): 2.65 µM | TGI (MOLT-4 leukemia): 9.8 µM | GI50 (SF-539 CNS): 9.17 µM | TGI (SF-539 CNS): 45.4 µM | GI50 (OVCAR-4 ovarian): > 100 µM | TGI (OVCAR-4 ovarian): > 100 µM | GI50 (HCC-2998 colon): 2.13 µM | TGI (HCC-2998 colon): 30.3 µM | GI50 (SNB-75 CNS): 25 µM | TGI (SNB-75 CNS): 62.1 µM | GI50 (A498 renal): 25.2 µM | TGI (A498 renal): 59.8 µM | GI50 (SF-295 CNS): 5.03 µM | TGI (SF-295 CNS): 18.4 µM | GI50 (HCT-116 colon): 1.27 µM | TGI (HCT-116 colon): 17.6 µM | GI50 (SNB-19 CNS): 6.91 µM | TGI (SNB-19 CNS): > 47.8 µM | GI50 (NCI-H23 lung): > 100 µM | TGI (NCI-H23 lung): > 100 µM | GI50 (A549 NSCLC): 12.7 µM | TGI (A549 NSCLC): > 100 µM | GI50 (ACHN renal): 24.2 µM | TGI (ACHN renal): > 100 µM | GI50 (K-562 leukemia): 3.39 µM | TGI (K-562 leukemia): 45.4 µM | GI50 (MDA-MB-435): 12.9 µM | TGI (MDA-MB-435): > 59.1 µM | GI50 (TK-10 renal): 40.2 µM | TGI (TK-10 renal): > 100 µM | GI50 (NCI/ADR-RES ovarian): > 100 µM | TGI (NCI/ADR-RES ovarian): > 100 µM | GI50 (HT29 colon): 2.15 µM | TGI (HT29 colon): > 100 µM | GI50 (PC-3 prostate): 4.04 µM | TGI (PC-3 prostate): > 60 µM | GI50 (HCT-15 colon): > 84.5 µM | TGI (HCT-15 colon): > 100 µM | GI50 (SW-620 colon): 7.51 µM | TGI (SW-620 colon): > 100 µM | GI50 (DU-145 prostate): > 44.3 µM | TGI (DU-145 prostate): > 100 µM | GI50 (M14 melanoma): 22.6 µM | TGI (M14 melanoma): > 58.9 µM | GI50 (SK-OV-3 ovarian): > 100 µM | TGI (SK-OV-3 ovarian): > 100 µM | GI50 (OVCAR-8 ovarian): 2.87 µM | TGI (OVCAR-8 ovarian): > 100 µM | GI50 (SK-MEL-28 melanoma): > 52.5 µM | TGI (SK-MEL-28 melanoma): > 82.4 µM | GI50 (SR leukemia): 0.225 µM | TGI (SR leukemia): 22.2 µM | GI50 (RXF 393 renal): > 47.8 µM | TGI (RXF 393 renal): > 92.2 µM | GI50 (OVCAR-5 ovarian): 20 µM | TGI (OVCAR-5 ovarian): > 100 µM | GI50 (CCRF-CEM leukemia): 0.491 µM | TGI (CCRF-CEM leukemia): 12.7 µM | GI50 (HOP-62 NSCLC): 6.59 µM | TGI (HOP-62 NSCLC): 47 µM | GI50 (HS 578T breast): > 50.7 µM | TGI (HS 578T breast): > 100 µM | GI50 (NCI-H226 lung): 7.89 µM | TGI (NCI-H226 lung): > 52.2 µM | GI50 (HOP-92 NSCLC): 1.74 µM | TGI (HOP-92 NSCLC): 8.62 µM | GI50 (T-47D breast): > 24.8 µM | TGI (T-47D breast): > 100 µM | GI50 (BT-549 breast): 58.2 µM | TGI (BT-549 breast): > 100 µM | GI50 (KM12 colon): 4.77 µM | TGI (KM12 colon): > 84.9 µM | GI50 (UACC-257 melanoma): > 100 µM | TGI (UACC-257 melanoma): > 100 µM | GI50 (RPMI-8226 leukemia): 0.487 µM | TGI (RPMI-8226 leukemia): 6.62 µM | GI50 (U251 CNS): 2.49 µM | TGI (U251 CNS): 17.4 µM | GI50 (CAKI-1 renal): > 100 µM | TGI (CAKI-1 renal): > 100 µM | GI50 (SN12C renal): 0.706 µM | TGI (SN12C renal): > 51.6 µM | GI50 (LOX IMVI melanoma): 1.31 µM | TGI (LOX IMVI melanoma): 13.9 µM | GI50 (NCI-H522 lung): 1.54 µM | TGI (NCI-H522 lung): 38.7 µM | GI50 (SK-MEL-2 melanoma): 40.3 µM | TGI (SK-MEL-2 melanoma): > 100 µM | GI50 (UACC-62 melanoma): 8.75 µM | TGI (UACC-62 melanoma): 38.9 µM | GI50 (MDA-MB-231 breast): 2 µM | TGI (MDA-MB-231 breast): 20.1 µM | GI50 (COLO 205 colon): 7.24 µM | TGI (COLO 205 colon): > 61.9 µM | GI50 (OVCAR-3 ovarian): 12.6 µM | TGI (OVCAR-3 ovarian): 31.5 µM
